We go through one compound from patent publication US20080177075A1, “Compositions For Progeny Gender Control” (AQ+PLC Stephen Mabbott Associates, priority 2004, published 2008).

The structures appear in SMILES notation.

From the text: Suitable aqueous based compositions can be prepared by using an intermediate diluent such as a polyol, including glycols, preferably propylene glycol, glycerine, or sorbitol, and a wetting agent.

In the case of `Oc1cccc2cccnc12` [8-hydroxyquinoline], the “solubility in aqueous solution” value is given as “generally insoluble or only poorly soluble”.
